The text below walks through data of ChEMBL document CHEMBL1121919, “13N-labeled L-amino acids for in vivo assessment of local myocardial metabolism” (J Med Chem, 1981).

For data set [1], the species on record is Canis familiaris. Put plainly: Ischemic myocardial half-life measured after intracoronary injection of [13N]-labeled amino acid in dogs (control - 88+/-2). The format is ADME, organism-based, Canis lupus familiaris, Myocardium. To be noted: dog, in vivo, other.
For data set [2], the species on record is Canis familiaris. Kind of data set: Ischemic myocardial residue fraction of [13N]-labeled amino acid was observed with a single pass uptake technique in open-chest instrumented dogs (control - 18.5+/-2.1). It is filed as functional, Canis lupus familiaris.
For data set [3], the species on record is Canis familiaris. Kind of data set: Ischemic myocardial residue fraction of [13N]-labeled amino acid was observed with a single pass uptake technique in open-chest instrumented dogs (control - 14+/-4.2). It is filed as functional, Canis lupus familiaris.
The species named for data set [4] is Canis familiaris. Kind of data set: Ischemic myocardial half-life measured after intracoronary injection of [13N]-labeled amino acid in dogs (control - 147+/-12). It is filed as ADME, organism-based, Canis lupus familiaris. To be noted: dog, in vivo, other.
Data set [5] is filed under the species Canis familiaris. Kind of data set: Ischemic myocardial residue fraction of [13N]-labeled amino acid was observed with a single pass uptake technique in open-chest instrumented dogs (control - 8.1+/-3.1). The format is functional, Canis lupus familiaris.
The species entered for data set [6] is Canis familiaris. Kind of data set: Ischemic myocardial half-life measured after intracoronary injection of [13N]-labeled amino acid in dogs (control - 114.1+/-26.5). The format is ADME, organism-based, Canis lupus familiaris, Myocardium. To be noted: dog, in vivo, other.
For data set [7], the species on record is Canis familiaris. Put plainly: Ischemic myocardial residue fraction of [13N]-labeled amino acid was observed with a single pass uptake technique in open-chest instrumented dogs (control - 17.3+/-6.1). The format is functional, Canis lupus familiaris.
The species named for data set [8] is Canis familiaris. Put plainly: Ischemic myocardial half-life measured after intracoronary injection of [13N]-labeled amino acid in dogs (control - 15.9+/-0.2). The format is ADME, organism-based, Canis lupus familiaris, Myocardium. To be noted: dog, in vivo, other.

`C[C@H](N)C(=O)O` [ALANINE]: in the data set listed under Canis familiaris [1], the T1/2 came out at 1.29 h. This molecule also came in with a Residue fraction in the data set filed under Canis familiaris [2] of 19.5%.
In the data set listed under Canis familiaris [3], `N[C@@H](CC(=O)O)C(=O)O` [ASPARTIC ACID] yielded a Residue fraction of 17%. In the data set listed under Canis familiaris [4], the T1/2 is 2.87 h.
In the data set filed under Canis familiaris [5], `N[C@@H](CCC(=O)O)C(=O)O` [GLUTAMIC ACID] had a Residue fraction of 11.5%. Also, the T1/2 in the data set filed under Canis familiaris [6] stood at 1.35 h.
Regarding `NC(=O)CC[C@H](N)C(=O)O` [GLUTAMINE], in the data set listed under Canis familiaris [7], the Residue fraction is reported as 20.5%. Also, the T1/2 in the data set listed under Canis familiaris [8] came to 0.292 h.
